The values that follow come from patent US7674771B2, “Antimicrobial peptides and utilization of the same” (Toagosei Co., Ltd, priority 2003, dated 2010).

Like-named read-outs stand apart in the source and are kept apart here. Peptide text beside a SMILES is read from it.

Assay [1] relates to Escherichia coli IFO 3972. Put plainly: MIC by liquid medium dilution technique, 96-well microplate, gram-negative bacteria. Format: cell-based. The protocol:
(§1) Regarding the antimicrobial peptide (samples 1 to 20) related to the present invention, the antimicrobial activities (minimum inhibitory concentration: MIC) with respect to gram-negative bacteria (Escherichia coli IFO 3972) and gram-positive bacteria (Staphylococcus aureus IFO 12732) were determined by a liquid medium dilution technique using a 96-well microplate.
(§2) First, a drug (synthesized polypeptide) solution having a concentration of 40 times of the highest test concentration was prepared using sterile distilled water, and liquid-bouillon mediums (more specifically, “Mueller Hinton Broth” manufactured by DIFCO) including cation and having drug concentrations of 100, 50, 25, 12.5, 6.3, 3.1, 1.6 and 0.8 μM were respectively produced. The cation included was prepared as follows: dissolving 3.68 g of CaCl2.2H2O in 100 mL of purified water (10 mg.Ca^2+/mL), and thereafter adding 500 μL thereof into 100 mL of Mueller Hinton Broth; and dissolving 8.36 g of MgCl2.6H2O in 100 mL of purified water (10 mg.Mg^2+/mL), and thereafter adding 250 μL thereof into 100 mL of Mueller Hinton Broth. Thereafter, the produced liquid-bouillon mediums including the drug of each concentration were then fed to the 96-well microplate at […] a time.
(§3) At the same time, test bacteria cultured for 18 hours at 37° C. on an agar plate (“Muller Hinton Agar” manufactured by DIFCO) were gathered by scratching with a loop, and then suspended in a sterilized physiological saline. Bacterial suspension 5 μL prepared at an equivalent of 2×10^7 cells/mL was respectively inoculated (number of bacteria to be tested: approximately 1×10^6 cells/mL) onto the drug solution and fed to each well of the above-described microplate. After inoculation, the microplate was then incubated in an incubator at 37° C., and the presence of bacteria was evaluated based on the turbidity 24 hours later. The minimum drug concentration (polypeptide concentration), in which an increased in turbidity caused by bacteria was not detected at the time of measurement, was defined as MIC (minimum inhibitory concentration) (unit: μM) in the present embodiment. In addition, MIC were determined in the same manner using polymyxin B as a comparison.

For assay [2], the system named is Staphylococcus aureus IFO 12732. The class given is cell-based. The protocol:
as §1, §2, §3

Assay [3] concerns S. aureus. Format: cell-based, Staphylococcus aureus. The procedure:
as §2, §3
Next, the antimicrobial activities (MIC) against gram-positive bacteria (S. aureus) in the presence of serum were tested with the same method as Example 2. […] Thereafter, the produced liquid-bouillon mediums including the drug and the serum of each concentration were then fed to the 96-well microplate at […] a time, and MIC were determined by the method same as Example 2. Sample X in the table is a mixture of sample 1 and sample 16 based on a mass ratio of 1:1. “-” in the table indicate “untested”.

The mark [4] stands for this setting: Mueller Hinton Broth with cation, 37° C., turbidity after 24 hours.

Consider `C[C@@H](O)[C@H](N)C(=O)NCC(=O)N[C@H](C(=O)NCC(N)=O)[C@@H](C)O` [comparative sample 2, TGTG-CONH2, reference compound] (H-TGTG-NH2), for which the “Antimicrobial Activities (MIC) E. coli” value in assay [1] (IFO 3972, 24 h) is greater than 100 µM. Moreover, the “Antimicrobial Activities (MIC) S. aureus” value in assay [2] (IFO 12732, 24 h) was greater than 100 µM.
For “Ac-RKKKRKVLMWWMLR-NH2 [sample 8, Ac-RKKKRKVLMWWMLR-CONH2]”, the “Antimicrobial Activities (MIC) E. coli” value in assay [1] (IFO 3972, 24 h) was found to be 12.5 µM. For the same compound, the “Antimicrobial Activities (MIC) S. aureus” value in assay [2] (IFO 12732, 24 h) amounted to 3.1 µM. For the same compound, in assay [3], the “Antimicrobial Activities (MIC) against S. aureus, horse serum concentration 10%” value came to 3.1 µM and the “Antimicrobial Activities (MIC) against S. aureus, horse serum concentration 50%” value came to 6.3 µM.
As for “H-LKRKLQRLMWWML-NH2 [sample 15, LKRKLQRLMWWML-CONH2]”, in assay [1] (IFO 3972, 24 h), the “Antimicrobial Activities (MIC) E. coli” value was determined as 12.5 µM. Moreover, in assay [2] (IFO 12732, 24 h), the “Antimicrobial Activities (MIC) S. aureus” value stood at 3.1 µM. The “Antimicrobial Activities (MIC) against S. aureus, horse serum concentration 10%” value in assay [3] amounted to 6.3 µM.
For “H-LKRKLQRLMWWMLR-NH2 [sample 18, LKRKLQRLMWWMLR-CONH2]”, the “Antimicrobial Activities (MIC) E. coli” value in assay [1] (IFO 3972, 24 h) was found to be 12.5 µM. The “Antimicrobial Activities (MIC) S. aureus” value in assay [2] (IFO 12732, 24 h) amounted to 6.3 µM.
The matching figures for “H-LMWWML-NH2 [comparative sample 3, LMWWML-CONH2, reference compound]”: greater than 100 µM and greater than 100 µM.
Regarding “H-LMWWMLRIRKKLR-NH2 [sample 4, LMWWMLRIRKKLR-CONH2]”, the “Antimicrobial Activities (MIC) E. coli” value in assay [1] (IFO 3972, 24 h) came out at 6.3 µM. In assay [2] (IFO 12732, 24 h), the “Antimicrobial Activities (MIC) S. aureus” value turned out to be 3.1 µM. Further, the “Antimicrobial Activities (MIC) against S. aureus, horse serum concentration 10%” value in assay [3] came to 6.3 µM.
For “H-LMWWMLRIRKKLRVGR-NH2 [sample 20, LMWWMLRIRKKLRVGR-CONH2]”, the “Antimicrobial Activities (MIC) E. coli” value in assay [1] (IFO 3972, 24 h) came out at 6.3 µM. In addition, the “Antimicrobial Activities (MIC) S. aureus” value in assay [2] (IFO 12732, 24 h) came to 3.1 µM.
Regarding “H-LMWWMLRKKKRKV-NH2 [sample 5, LMWWMLRKKKRKV-CONH2]”, the “Antimicrobial Activities (MIC) E. coli” value in assay [1] (IFO 3972, 24 h) turned out to be 50 µM. Further, the “Antimicrobial Activities (MIC) S. aureus” value in assay [2] (IFO 12732, 24 h) amounted to 3.1 µM.
For “H-RAVTLYLGAVAA-NH2 [comparative sample 4, RAVTLYLGAVAA-CONH2, reference compound]”, the “Antimicrobial Activities (MIC) E. coli” value in assay [1] (setting [4]) is greater than 100 µM. Besides, the “Antimicrobial Activities (MIC) S. aureus” value in assay [2] (setting [4]) was greater than 100 µM.
For “H-RGDLMWWMLAR-NH2 [comparative sample 1, RGDLMWWMLAR-CONH2, reference compound]”, the “Antimicrobial Activities (MIC) E. coli” value in assay [1] (IFO 3972, 24 h) is greater than 100 µM. The “Antimicrobial Activities (MIC) S. aureus” value in assay [2] (IFO 12732, 24 h) is greater than 100 µM. In assay [3], the “Antimicrobial Activities (MIC) against S. aureus, horse serum concentration 10%” value was greater than 50 µM.
As for “H-RIRKKLRLMWWMLAR-NH2 [sample 7, RIRKKLRLMWWMLAR-CONH2]”, the “Antimicrobial Activities (MIC) E. coli” value in assay [1] (IFO 3972, 24 h) was 6.3 µM. In addition, in assay [2] (IFO 12732, 24 h), the “Antimicrobial Activities (MIC) S. aureus” value worked out at 3.1 µM. For the same compound, in assay [3], the “Antimicrobial Activities (MIC) against S. aureus, horse serum concentration 10%” value was determined as 3.1 µM; the “Antimicrobial Activities (MIC) against S. aureus, horse serum concentration 20%” value came to 6.3 µM; the “Antimicrobial Activities (MIC) against S. aureus, horse serum concentration 50%” value stood at 6.3 µM.
As to “H-RIRKKLRLMWWMLR-NH2 [sample 14, RIRKKLRLMWWMLR-CONH2]”, in assay [1] (IFO 3972, 24 h), the “Antimicrobial Activities (MIC) E. coli” value is 6.3 µM. For the same compound, in assay [2] (IFO 12732, 24 h), the “Antimicrobial Activities (MIC) S. aureus” value turned out to be 3.1 µM. Moreover, the “Antimicrobial Activities (MIC) against S. aureus, horse serum concentration 10%” value in assay [3] was 6.3 µM.
As to “H-RIRKKLRYIGSR-NH2 [comparative sample 6, RIRKKLRYIGSR-CONH2, reference compound]”, in assay [1] (IFO 3972, 24 h), the “Antimicrobial Activities (MIC) E. coli” value is greater than 100 µM. Further, the “Antimicrobial Activities (MIC) S. aureus” value in assay [2] (IFO 12732, 24 h) was 50 µM.
As for “H-RKKKRKVFFYMVIR-NH2 [sample 11, RKKKRKVFFYMVIR-CONH2]”, the “Antimicrobial Activities (MIC) E. coli” value in assay [1] (IFO 3972, 24 h) was determined as 6.3 µM. The “Antimicrobial Activities (MIC) S. aureus” value in assay [2] (IFO 12732, 24 h) was 3.1 µM.
The like results for “H-RKKKRKVLLTAKMR-NH2 [sample 10, RKKKRKVLLTAKMR-CONH2]” were, in that order, 50 µM and 12.5 µM.
The matching figures for “H-RKKKRKVLMWWML-NH2 [sample 2, RKKKRKVLMWWML-CONH2]”: 12.5 µM and 3.1 µM.
For “H-RKKKRKVLMWWMLAR-NH2 [sample 6, RKKKRKVLMWWMLAR-CONH2]”, the “Antimicrobial Activities (MIC) E. coli” value in assay [1] (setting [4]) is 12.5 µM. For the same compound, in assay [2] (setting [4]), the “Antimicrobial Activities (MIC) S. aureus” value is 6.3 µM. In addition, the “Antimicrobial Activities (MIC) against S. aureus, horse serum concentration 10%” value in assay [3] (horse serum 10%) was 3.1 µM. Also, in assay [3] (horse serum 20%), the “Antimicrobial Activities (MIC) against S. aureus, horse serum concentration 20%” value was found to be 3.1 µM. Further, the “Antimicrobial Activities (MIC) against S. aureus, horse serum concentration 50%” value in assay [3] (horse serum 50%) turned out to be 1.6 µM.
Turning to “H-RKKKRKVLMWWMLKPV-NH2 [sample 21, RKKKRKVLMWWMLKPV-CONH2]”, the “Antimicrobial Activities (MIC) against S. aureus, horse serum concentration 10%” value in assay [3] worked out at 1.6 µM. Also, in assay [3] (horse serum, Table 3), the “antimicrobial activity against S. aureus in the presence of serum, in words” value was “particularly high antimicrobial activity”.
Take “H-RKKKRKVLMWWMLR-OH [sample 16, RKKKRKVLMWWMLR-COOH]”: the “Antimicrobial Activities (MIC) E. coli” value in assay [1] (IFO 3972, 24 h) came to 12.5 µM. Also, in assay [2] (IFO 12732, 24 h), the “Antimicrobial Activities (MIC) S. aureus” value was 3.1 µM. In addition, the “Antimicrobial Activities (MIC) against S. aureus, horse serum concentration 10%” value in assay [3] came out at 3.1 µM.
Turning to “H-RKKKRKVLYLGAVR-NH2 [sample 12, RKKKRKVLYLGAVR-CONH2]”, the “Antimicrobial Activities (MIC) E. coli” value in assay [1] (IFO 3972, 24 h) turned out to be 50 µM. The “Antimicrobial Activities (MIC) S. aureus” value in assay [2] (IFO 12732, 24 h) turned out to be 12.5 µM.
The like results for “H-RKKKRKVVVYWLLR-NH2 [sample 9, RKKKRKVVVYWLLR-CONH2]” were, in that order, 12.5 µM and 3.1 µM.
The matching figures for “H-RKKKRKVYIGSR-NH2 [comparative sample 7, RKKKRKVYIGSR-CONH2, reference compound]”: 100 µM and 12.5 µM.
The matching figures for “H-RKKRRQRRRLMWWML-NH2 [sample 19, RKKRRQRRRLMWWML-CONH2]”: 12.5 µM and 6.3 µM.
For “H-RKRKRKRLMWWML-NH2 [sample 13, RKRKRKRLMWWML-CONH2]”, the “Antimicrobial Activities (MIC) E. coli” value in assay [1] (IFO 3972, 24 h) is 6.3 µM. For the same compound, the “Antimicrobial Activities (MIC) S. aureus” value in assay [2] (IFO 12732, 24 h) was 3.1 µM.
On to “H-RKRRLMWWMLKKLR-NH2 [sample 17, RKRRLMWWMLKKLR-CONH2]”, for which the “Antimicrobial Activities (MIC) E. coli” value in assay [1] (IFO 3972, 24 h) was found to be 6.3 µM. Further, the “Antimicrobial Activities (MIC) S. aureus” value in assay [2] (IFO 12732, 24 h) was 3.1 µM.
For the compound “H-RLLTAKMLMWWMLR-NH2 [comparative sample 5, RLLTAKMLMWWMLR-CONH2, reference compound]”, the “Antimicrobial Activities (MIC) E. coli” value in assay [1] (IFO 3972, 24 h) is greater than 100 µM. Moreover, the “Antimicrobial Activities (MIC) S. aureus” value in assay [2] (IFO 12732, 24 h) was determined as 12.5 µM.
With polymyxin B [reference compound], in assay [1] (setting [4]), the “Antimicrobial Activities (MIC) E. coli” value was 1.6 µM. Also, the “Antimicrobial Activities (MIC) S. aureus” value in assay [2] (setting [4]) came out at 6.3 µM. Also, the “Antimicrobial Activities (MIC) against S. aureus, horse serum concentration 10%” value in assay [3] (horse serum 10%) was 6.3 µM. Besides, the “Antimicrobial Activities (MIC) against S. aureus, horse serum concentration 20%” value in assay [3] (horse serum 20%) stood at 6.3 µM. Further, the “Antimicrobial Activities (MIC) against S. aureus, horse serum concentration 50%” value in assay [3] (horse serum 50%) was found to be 3.1 µM.
